The target of one assay is Casein kinase II (Homo sapiens, UniProt P19784+P67870+P68400). The assay is described as follows: Inhibition of recombinant human CK2 using RRRDDDSDDD as substrate after 20 mins by beta counting analysis in presence of [gamma-labeled 32P]ATP. Format: protein-complex assay.
The target in assay [1] is Casein kinase II (Homo sapiens) (UniProt P67870+P68400+P19784). Description: Inhibition of recombinant human CK2 using RRRDDDSDDD as substrate assessed as residual activity at 10 uM after 20 mins by beta counting analysis in presence of [gamma-labeled 32P]ATP relative to control. It counts as protein-complex assay.

pIC50: −log10 of the molar value. Bounds are passed on as bounds.

Chain of Casein kinase II (P67870 whole entry): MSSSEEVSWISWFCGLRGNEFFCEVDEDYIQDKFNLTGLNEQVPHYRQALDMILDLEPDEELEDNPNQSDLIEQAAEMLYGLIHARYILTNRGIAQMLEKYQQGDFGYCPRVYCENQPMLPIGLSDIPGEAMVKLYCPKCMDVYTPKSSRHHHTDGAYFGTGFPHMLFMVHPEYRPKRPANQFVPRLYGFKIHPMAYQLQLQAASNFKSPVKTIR
Chain of Casein kinase II (P68400 whole entry): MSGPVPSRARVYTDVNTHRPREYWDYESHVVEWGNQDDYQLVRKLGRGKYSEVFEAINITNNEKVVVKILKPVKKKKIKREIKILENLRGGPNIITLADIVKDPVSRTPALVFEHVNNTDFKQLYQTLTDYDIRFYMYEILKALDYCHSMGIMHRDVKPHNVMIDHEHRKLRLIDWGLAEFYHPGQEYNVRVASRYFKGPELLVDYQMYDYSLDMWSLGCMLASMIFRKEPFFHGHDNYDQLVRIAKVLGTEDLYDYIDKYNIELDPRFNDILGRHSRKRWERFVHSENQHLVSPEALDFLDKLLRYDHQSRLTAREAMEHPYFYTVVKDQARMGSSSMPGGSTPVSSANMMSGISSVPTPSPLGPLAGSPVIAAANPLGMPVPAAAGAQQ
Chain of Casein kinase II (P19784 whole entry): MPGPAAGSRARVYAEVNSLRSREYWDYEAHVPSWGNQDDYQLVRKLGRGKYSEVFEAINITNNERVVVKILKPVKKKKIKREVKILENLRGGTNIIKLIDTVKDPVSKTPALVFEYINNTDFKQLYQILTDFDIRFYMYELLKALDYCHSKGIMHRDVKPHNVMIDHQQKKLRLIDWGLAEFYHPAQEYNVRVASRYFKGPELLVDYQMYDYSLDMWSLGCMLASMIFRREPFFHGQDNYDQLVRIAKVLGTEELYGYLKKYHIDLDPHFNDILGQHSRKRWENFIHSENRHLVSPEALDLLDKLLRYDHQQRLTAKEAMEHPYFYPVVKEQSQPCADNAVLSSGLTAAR

With `COc1cc(-c2cc(=O)c3c(C)cc(C)cc3o2)ccc1O`, at Casein kinase II, the pIC50 is 7.52. Turning to `COc1ccc2c(=O)cc(-c3ccc(O)c(OC)c3)oc2c1`, the pIC50 at Casein kinase II was 6.76. Consider `COc1cc(-c2cc(=O)c3cc(Cl)ccc3o2)ccc1O`, for which the negative logarithm of the IC50 (pIC50) at Casein kinase II is 6.62. On to `COc1ccc(-c2cc(=O)c3c4c(ccc3o2)OCN(c2cccc(C(F)(F)F)c2)C4)cc1`, for which, at Casein kinase II, the negative logarithm of the IC50 (pIC50) is 4.82. Besides, the Activity in assay [1] stood at 18%. On to `Cc1cc(C)c2oc(-c3ccc(O)c([N+](=O)[O-])c3)cc(=O)c2c1`, for which the negative logarithm of the IC50 (pIC50) on Casein kinase II was 7.92. Turning to `COc1ccc(-c2oc3ccc(C)cc3c(=O)c2OCC(=O)O)cc1`, the pIC50 on Casein kinase II is less than 4.52. Moreover, the Activity in assay [1] was 77%.

`COc1cc(-c2cc(=O)c3cc(C)c(C)cc3o2)ccc1O`: the negative-log IC50 (pIC50) at Casein kinase II was 5.52.

For the compound `Cc1ccc2oc(-c3ccc(C(C)C)cc3)c(O)c(=O)c2c1`, the pIC50 at Casein kinase II was 4.59. Further, in assay [1], the Activity came to 39%. Consider `COc1cc(-c2cc(=O)c3cc(NC(C)=O)ccc3o2)ccc1O`, for which the pIC50 on Casein kinase II was 6.82.

Turning to `COc1cc(-c2oc3ccc(C)cc3c(=O)c2O)cc(OC)c1OC`, the pIC50 on Casein kinase II is less than 4.52. Moreover, the Activity in assay [1] was 65%. On to `COc1ccc(-c2oc3ccccc3c(=O)c2O)cc1`, for which, on Casein kinase II, the negative logarithm of the IC50 (pIC50) is less than 4.52. Also, the Activity in assay [1] amounted to 86%. For `COc1cc(-c2cc(=O)c3ccc(C)c(C)c3o2)ccc1O`, the negative logarithm of the IC50 (pIC50) at Casein kinase II was 6.52.

For `Cc1cc(C)c2oc(-c3ccc(O)c(Br)c3)cc(=O)c2c1`, the negative logarithm of the IC50 (pIC50) at Casein kinase II was 7.30. Turning to `COc1ccc(-c2oc3ccc(C)cc3c(=O)c2O)cc1OC`, the pIC50 at Casein kinase II is less than 4.52. For the same compound, in assay [1], the Activity amounted to 64%.

For `COc1cc(-c2cc(=O)c3cc(O)ccc3o2)cc(OC)c1OC`, the negative logarithm of the IC50 (pIC50) at Casein kinase II is 4.59. The Activity in assay [1] was found to be 45%.

On to `Cc1ccc(-c2oc3ccc(C)cc3c(=O)c2OCC(=O)O)cc1`, for which the pIC50 on Casein kinase II was less than 4.52. Moreover, the Activity in assay [1] came out at 83%.

As for `Cc1cc(C)c2oc(-c3cc(Cl)c(O)c(Cl)c3)cc(=O)c2c1`, the pIC50 on Casein kinase II was 7.11. In the case of `Cc1ccc2oc(-c3ccc(Br)cc3)c(O)c(=O)c2c1`, at Casein kinase II, the pIC50 is less than 4.52. In addition, the Activity in assay [1] was 65%. Consider `COc1cc(-c2cc(=O)c3cc(Cl)c(C)cc3o2)ccc1O`, for which the negative-log IC50 (pIC50) on Casein kinase II is 6.10. As to `O=C(COc1c(-c2ccccc2Cl)oc2ccccc2c1=O)N1CCOCC1`, the negative logarithm of the IC50 (pIC50) on Casein kinase II is less than 4.52. Moreover, in assay [1], the Activity was 97%.

On to `Cc1ccc2oc(-c3ccc(O)cc3)cc(=O)c2c1`, for which the negative-log IC50 (pIC50) at Casein kinase II was 5.10.

`COc1cc(-c2cc(=O)c3ccc(C)cc3o2)ccc1O`: the pIC50 on Casein kinase II is 7.05. For `CCN1CCN(Cc2c(O)ccc3oc(-c4cc(OC)c(OC)c(OC)c4)cc(=O)c23)CC1`, the negative-log IC50 (pIC50) on Casein kinase II was less than 4.52. For the same compound, the Activity in assay [1] turned out to be 77%.

As for `O=c1cc(-c2ccc(F)cc2)oc2ccccc12`, the pIC50 on Casein kinase II was less than 4.52. Also, in assay [1], the Activity was 77%. For `Cc1ccc(-c2oc3ccc(C)cc3c(=O)c2O)cc1`, the pIC50 at Casein kinase II is less than 4.52. Also, the Activity in assay [1] amounted to 56%.

As to `CCc1ccc2oc(-c3ccc(O)c(OC)c3)cc(=O)c2c1`, on Casein kinase II, the negative logarithm of the IC50 (pIC50) was 6.92. For `COc1cc(-c2cc(=O)c3ccccc3o2)ccc1O`, the pIC50 on Casein kinase II was 6.10. The Activity in assay [1] came out at 5%. For `COc1cccc(-c2cc(=O)c3cc(C)cc(C)c3o2)c1O`, on Casein kinase II, the negative logarithm of the IC50 (pIC50) is less than 4.52. Consider `COc1cc(-c2cc(=O)c3c(CN(C)Cc4ccccc4)c(O)ccc3o2)cc(OC)c1OC`, for which, on Casein kinase II, the negative-log IC50 (pIC50) is less than 4.52. Besides, the Activity in assay [1] turned out to be 73%. For the compound `COc1ccc(-c2oc3c(C)cc(C)cc3c(=O)c2OS(C)(=O)=O)cc1`, the pIC50 on Casein kinase II was 4.55. The Activity in assay [1] was 46%. Take `COc1cc(-c2cc(=O)c3ccc4ccccc4c3o2)ccc1O`: the pIC50 on Casein kinase II was 7.55.

For `COc1cc(-c2cc(=O)c3cc(C)ccc3o2)cc(OC)c1OC`, on Casein kinase II, the pIC50 was less than 4.52. Besides, the Activity in assay [1] came to 92%.

For `COc1cc(-c2cc(=O)c3ccc4ccccc4c3o2)cc(Cl)c1O`, the pIC50 at Casein kinase II was 7.06. Turning to `COc1ccc(-c2oc3ccccc3c(=O)c2O)cc1OC` [3-HYDROXY-3',4'-DIMETHOXYFLAVONE], the pIC50 on Casein kinase II is less than 4.52. In assay [1], the Activity came out at 66%.

Take `COc1cc(-c2cc(=O)c3c(C)c(Cl)c(C)cc3o2)ccc1O`: the pIC50 at Casein kinase II was 5.70. With `COc1ccc(-c2cc(=O)c3c4c(ccc3o2)OCN(Cc2ccco2)C4)cc1`, the pIC50 at Casein kinase II was 4.92. Moreover, in assay [1], the Activity worked out at 17%.

Take `Cc1ccc(-c2cc(=O)c3cc(C)cc(C)c3o2)cc1`: the pIC50 at Casein kinase II is 4.68. The Activity in assay [1] worked out at 35%. On the same counts, the results for `COc1ccc(-c2cc(=O)c3cc(O)ccc3o2)cc1` are 4.52 and 49%. `COc1cc(-c2cc(=O)c3cc(Br)ccc3o2)ccc1O`: the pIC50 on Casein kinase II is 6.92. With `Cc1ccc2oc(-c3cc(Br)ccc3O)c(O)c(=O)c2c1`, the pIC50 at Casein kinase II is 4.55. Also, the Activity in assay [1] turned out to be 45%. Regarding `COc1ccc(-c2cc(=O)c3cc(C)cc(C)c3o2)cc1O`, the negative logarithm of the IC50 (pIC50) at Casein kinase II was less than 4.52. With `COc1ccc(-c2oc3cc(C)cc(C)c3c(=O)c2OC(=O)C2COc3ccccc3O2)cc1` (stereo not given), the pIC50 on Casein kinase II was 4.68. The Activity in assay [1] was determined as 37%. With `COc1cc(-c2cc(=O)c3c(CN4CCCCC4)c(O)ccc3o2)cc(OC)c1OC`, the pIC50 at Casein kinase II is less than 4.52. For the same compound, in assay [1], the Activity is 74%. In the case of `COc1ccc(-c2cc(=O)c3cc(C)ccc3o2)cc1OC`, the negative logarithm of the IC50 (pIC50) on Casein kinase II was less than 4.52. The Activity in assay [1] was 81%. As for `Cc1cc(C)c2oc(-c3ccc(O)cc3)cc(=O)c2c1`, the negative-log IC50 (pIC50) at Casein kinase II was 5.80. For `Cc1cc(C)c2oc(-c3cccc(O)c3)cc(=O)c2c1`, at Casein kinase II, the pIC50 is 5.66. The same measure, in the same setting: as for `COc1cc(-c2cc(=O)c3cc(C)ccc3o2)ccc1O`, the figure is 6.49.

With `COc1ccc(-c2oc3ccccc3c(=O)c2OC(C)=O)cc1`, on Casein kinase II, the negative logarithm of the IC50 (pIC50) was less than 4.52. Moreover, the Activity in assay [1] was determined as 68%.

For the compound `Cc1ccc2oc(-c3ccc(F)cc3)c(O)c(=O)c2c1`, the pIC50 on Casein kinase II was less than 4.52. Also, the Activity in assay [1] amounted to 60%. On the same counts, the results for `O=c1cc(-c2cccc(Br)c2)oc2ccc(O)cc12` are 4.72 and 29%. As to `COc1ccc(-c2cc(=O)c3cc(C)ccc3o2)cc1`, the pIC50 at Casein kinase II is less than 4.52. For the same compound, the Activity in assay [1] was determined as 73%. On the same counts, the results for `COc1ccc(-c2cc(=O)c3c(CN4CCOCC4)c(O)ccc3o2)cc1` are less than 4.52 and 79%. `COc1cc(-c2cc(=O)c3cc(Cl)cc(Cl)c3o2)cc(Cl)c1O`: at Casein kinase II, the pIC50 was 7.70. With `Cc1ccc2oc(-c3ccccc3)c(OCC(=O)N3CCOCC3)c(=O)c2c1`, the pIC50 at Casein kinase II is less than 4.52. In addition, the Activity in assay [1] is 95%. On to `Cc1ccc(-c2oc3c(C)cc(C)cc3c(=O)c2OCC(=O)O)cc1`, for which the pIC50 on Casein kinase II was 4.55. In addition, the Activity in assay [1] worked out at 50%. As to `Cc1ccc2oc(-c3ccc(Cl)cc3)c(O)c(=O)c2c1`, the pIC50 at Casein kinase II was 4.64. Further, the Activity in assay [1] worked out at 38%. Consider `COc1ccc(-c2cc(=O)c3cc(OC(C)=O)ccc3o2)cc1`, for which the negative logarithm of the IC50 (pIC50) at Casein kinase II was less than 4.52. In addition, the Activity in assay [1] was 89%.

For the compound `Cc1cc(C)c2oc(-c3ccc(O)c(O)c3)cc(=O)c2c1`, the negative logarithm of the IC50 (pIC50) at Casein kinase II was 6.35. For `COc1cc(-c2cc(=O)c3cc(C)cc(C)c3o2)cc(Cl)c1O`, at Casein kinase II, the pIC50 was 7.05.

Take `COc1ccc(-c2cc(=O)c3c(CN4CCC(C)CC4)c(O)ccc3o2)cc1`: on Casein kinase II, the pIC50 was less than 4.52. Further, in assay [1], the Activity came out at 68%. Regarding `COc1ccc(-c2oc3ccccc3c(=O)c2OC)cc1OC`, the negative-log IC50 (pIC50) on Casein kinase II was less than 4.52. In addition, the Activity in assay [1] was 66%.

Turning to `COc1cc(-c2cc(=O)c3cc(C)cc(C)c3o2)cc([N+](=O)[O-])c1O`, the negative logarithm of the IC50 (pIC50) on Casein kinase II is 7.18. As for `Cc1cc(C)c2oc(-c3cc(Br)c(O)c(Br)c3)cc(=O)c2c1`, the pIC50 at Casein kinase II was 6.74.

In the case of `COc1cccc(-c2oc3ccc(C)cc3c(=O)c2O)c1`, the negative-log IC50 (pIC50) at Casein kinase II was 4.60. For the same compound, in assay [1], the Activity came to 47%.

Regarding `Cc1ccc(-c2cc(=O)c3cc(O)ccc3o2)cc1`, on Casein kinase II, the pIC50 is 4.72. Moreover, the Activity in assay [1] turned out to be 35%. For `CCOc1ccc(-c2oc3ccc(C)cc3c(=O)c2O)cc1`, the negative-log IC50 (pIC50) at Casein kinase II is less than 4.52. In addition, in assay [1], the Activity was 57%. As to `COc1ccc(-c2cc(=O)c3cc(C)cc(C)c3o2)cc1OC`, on Casein kinase II, the pIC50 is less than 4.52. Besides, the Activity in assay [1] turned out to be 87%. As to `COc1ccc2oc(-c3ccc(O)c(OC)c3)cc(=O)c2c1`, the pIC50 at Casein kinase II is 6.70. On to `CCOc1cc(-c2cc(=O)c3ccccc3o2)ccc1O`, for which the pIC50 on Casein kinase II is 5.12. Further, the Activity in assay [1] came to 21%.

Take `Cc1ccc(-c2oc3ccccc3c(=O)c2OCC(=O)N2CCOCC2)cc1`: the pIC50 on Casein kinase II was less than 4.52. The Activity in assay [1] stood at 97%. On the same counts, the results for `COc1ccc(-c2oc3ccc(C)cc3c(=O)c2O)cc1` are 4.55 and 50%.

`CCOc1cc(-c2cc(=O)c3cc(C)ccc3o2)ccc1O`: at Casein kinase II, the pIC50 is 5.10. Also, in assay [1], the Activity came to 18%. As for `COc1cc(-c2cc(=O)c3cc(C)cc(C)c3o2)cc(Br)c1O`, the pIC50 at Casein kinase II was 6.19. As to `Cc1ccc2oc(-c3ccccc3)c(O)c(=O)c2c1`, the pIC50 at Casein kinase II is less than 4.52. For the same compound, the Activity in assay [1] was 80%. Consider `CN(C)c1ccc(-c2oc3ccccc3c(=O)c2O)cc1`, for which the negative logarithm of the IC50 (pIC50) at Casein kinase II is less than 4.52. Further, the Activity in assay [1] was determined as 73%. On the same counts, the results for `Cc1cc(C)c2c(=O)cc(-c3ccc(N(C)C)cc3)oc2c1` are less than 4.52 and 58%. As to `COc1ccc(-c2cc(=O)c3c(CN(C)Cc4ccccc4)c(O)ccc3o2)cc1`, on Casein kinase II, the negative logarithm of the IC50 (pIC50) is less than 4.52. Further, in assay [1], the Activity came to 73%.
